Results reported in US20250057893A1, “PHARMACEUTICAL COMPOSITION FOR PREVENTING OR TREATING CANCER OR INFLAMMATORY DISEASE” (ENTEROBIOME INC., priority 2021, published 2025).
≈ marks a conversion by molar mass, not a printed value.

Tests used:
Type in all cases: cell-based
[1] = tested on: Akkermansia muciniphila EB-AMDK39 strain; assay: Antimicrobial susceptibility, broth microdilution MIC (CLSI), isolated strain; conditions: for MIC: Akkermansia muciniphila, EBAMDK39STRAIN, read-out: MIC, test strain EB-AMDK39, broth microdilution
[2] = tested on: Akkermansia muciniphila ATCC BAA-835; assay: Antimicrobial susceptibility, broth microdilution MIC (CLSI), type strain; conditions: for MIC: Akkermansia muciniphila, ATCCBAA835, broth microdilution, read-out: MIC, test strain ATCC BAA-835
[3] = tested on: Bacteroides thetiotaomicron ATCC 29741; assay: Antimicrobial susceptibility, broth microdilution MIC (CLSI), QC strain; parameters: MIC, QC ATCC 297415: unit not given beside the values; conditions: for MIC: Bacteroides, ATCC 29741 / ATCC 297415, read-out: MIC, QC ATCC 297415

Compound | MIC [1] | MIC [2] | MIC [3] | other results
O=C(N[C@H](CO)[C@H](O)c1ccc([N+](=O)[O-])cc1)C(Cl)Cl [CHL, chloramphenicol] | 8 µg/mL (≈ 24.8 µM) | 4 µg/mL (≈ 12.4 µM) | 8 µg/mL (≈ 24.8 µM) | Susceptibility category by MIC breakpoints, CHL ([1]; EB-AMDK39, CHL breakpoints): S (≤8); Susceptibility category by MIC breakpoints, CHL ([2]; ATCC BAA-835, CHL breakpoints): S (≤8)
CCC[C@@H]1C[C@@H](C(=O)N[C@@H]([C@H]2O[C@H](SC)[C@H](O)[C@@H](O)[C@H]2O)[C@H](C)Cl)N(C)C1 [CLI, clindamycin] | > 64 µg/mL | ≤ 0.125 µg/mL |  | Susceptibility category by MIC breakpoints, CLI ([1]; EB-AMDK39, CLI breakpoints): R (≥8); Susceptibility category by MIC breakpoints, CLI ([2]; ATCC BAA-835, CLI breakpoints): S (≤2)
CO/N=C(\C(=O)N[C@@H]1C(=O)N2C(C(=O)O)=CCS[C@H]12)c1csc(N)n1 [CTZ, ceftizoxime] | 256 µg/mL (≈ 668 µM) | 2 µg/mL (≈ 5.22 µM) | 16 µg/mL (≈ 41.7 µM) | Susceptibility category by MIC breakpoints, CTZ ([1]; EB-AMDK39, CTZ breakpoints): R (≥128); Susceptibility category by MIC breakpoints, CTZ ([2]; ATCC BAA-835, CTZ breakpoints): S (≤32)
C[C@@H](O)[C@H]1C(=O)N2C(C(=O)O)=C(S[C@@H]3CN[C@H](C(=O)N(C)C)C3)[C@H](C)[C@H]12 [MEM, meropenem] | 4 µg/mL (≈ 10.4 µM) | 1 µg/mL (≈ 2.61 µM) | 0.5 µg/mL (≈ 1.3 µM) | Susceptibility category by MIC breakpoints, MEM ([1]; EB-AMDK39, MEM breakpoints): S (≤4); Susceptibility category by MIC breakpoints, MEM ([2]; ATCC BAA-835, MEM breakpoints): S (≤4)
Cc1ncc([N+](=O)[O-])n1CCO [MTZ, metronidazole] | 1 µg/mL (≈ 5.84 µM) | ≤ 0.25 µg/mL | 2 µg/mL (≈ 11.7 µM) | Susceptibility category by MIC breakpoints, MTZ ([1]; EB-AMDK39, MTZ breakpoints): S (≤8); Susceptibility category by MIC breakpoints, MTZ ([2]; ATCC BAA-835, MTZ breakpoints): S (≤8)
COc1c(N2C[C@@H]3CCCN[C@@H]3C2)c(F)cc2c(=O)c(C(=O)O)cn(C3CC3)c12 [MXF, moxifloxacin] | > 32 µg/mL | > 32 µg/mL | 8 µg/mL (≈ 19.9 µM) | Susceptibility category by MIC breakpoints, MXF ([1]; EB-AMDK39, MXF breakpoints): R (≥8); Susceptibility category by MIC breakpoints, MXF ([2]; ATCC BAA-835, MXF breakpoints): R (≥8)
Piperacillin-tazobactam [PTZ] |  |  |  | Susceptibility category by MIC breakpoints, PTZ ([1]; EB-AMDK39, PTZ breakpoints): S (≤32/4); Susceptibility category by MIC breakpoints, PTZ ([2]; ATCC BAA-835, PTZ breakpoints): S (≤32/4); MIC, QC ATCC 297415 ([3]; broth microdilution, QC strain): 8/4
